The record followed here is patent US20240166693A1, “METHODS AND COMPOUNDS FOR MODULATING MYOTONIC DYSTROPY 1” (Design Therapeutics, Inc., priority 2020, published 2024).

The subject of this assay is Myotonic Dystrophy 1 affected patient fibroblasts (Coriell GM04602; 1600 CTG repeats). Nature of the assay: DM1 foci reduction assay (CAG10-Cy3 FISH, average foci per nucleus). The format is cell-based. The note with it: Homo sapiens, Fibroblast. Put shortly: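 Read-out is mean nuclear foci per well from CAG10-Cy3 FISH (5 nM probe, overnight 37 °C) with DAPI nuclei, 4 fields per well at 20×. Compounds ran 48 h in 8-point, 3-fold series topping at 3 μM on 1600-CTG GM04602 fibroblasts, alongside GM07492 wild-type cells.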

[1] abbreviates: 48 h, read-out: Foci Reduction in Fibroblast EC50, 48 h (nM).
Setting [2] is: DM1 fibroblasts, 48 h treatment, 8-point dose response, 3 μM top dose, read-out: Foci Reduction in Fibroblast EC50, 48 h.

Like-named read-outs stand apart in the source and are kept apart here. Starred links: 1 amine or outer side, 2 acyl side, 3 side chain; linkers in the order of their positions; H or OH if unused. Positions of bridges follow the written chain, without caps; N, C: chain ends. Non-standard residues stand in square brackets, D forms with d. Residues, ends and D or L forms follow the SMILES beside them. Chains are numbered I, II in the order given. *: point of attachment. ImPyβIm = Cn1cc(NC(=O)c2nccn2C)cc1C(=O)NCCC(=O)Nc1cn(C)c(C(=O)*)n1; HN(CH2CH2O)5CH2CH2NH = C(COCCOCCOCCOCCOCCN[*:2])N[*:1]; 4Amino1MeIm2CO = Cn1cc(N[*:1])nc1C(=O)[*:2]; Benzoyl(4-tBu) = CC(C)(C)c1ccc(C(=O)*)cc1; Lys(Et2) = CCN(CC)CCCC[C@H](N)C(=O)O; X1 = Cn1cc(N[*:1])cc1C(=O)[*:2]; dDab = NCC[C@@H](N)C(=O)O Bounds are passed on as bounds.

Consider `CCN(CC)CCCC[C@H](NC(=O)[C@H](CC(C)C)NC(=O)[C@H](C)NC(=O)[C@H](Cc1ccccc1)NC(=O)c1ccccc1C)C(=O)N[C@@H](CO)C(=O)NCCOCCOCCOCCOCCOCCNC(=O)c1cc(NC(=O)c2cc(NC(=O)c3nc(NC(=O)c4cc(NC(=O)[C@@H](N)CCNC(=O)c5nc(NC(=O)CCNC(=O)c6cc(NC(=O)c7nccn7C)cn6C)cn5C)cn4C)cn3C)cn2C)cn1C` [Compound 89], for which, under setting [1], the concentration for a half-maximal effect (EC50) was more than 500 nM.

As to `CCN(CC)CCCC[C@H](NC(=O)[C@H](CC(C)C)NC(=O)[C@H](C)NC(=O)[C@H](Cc1ccccc1)NC(=O)c1ccc(C(C)(C)C)cc1)C(=O)N[C@@H](CO)C(=O)N1CCN(CCOCCOCCOCCOCCNC(=O)CCNC(=O)c2nc(NC(=O)c3cc(NC(=O)CCNC(=O)c4nc(NC(=O)CCCNC(=O)c5cc(NC(=O)c6nc(NC(=O)CCNC(=O)c7cc(NC(=O)c8nccn8C)cn7C)cn6C)cn5C)cn4C)cn3C)cn2C)CC1` [Compound 185], under setting [1], the EC50 was in the range of 100 to 500 nM. For the compound `CC(C)c1cnn2c(NCc3ccc(OCCOCCOCCOCCOCCOCCNC(=O)c4cc(NC(=O)c5cc(NC(=O)c6nc(NC(=O)c7cc(NC(=O)[C@@H](N)CCNC(=O)c8nc(NC(=O)CCNC(=O)c9cc(NC(=O)c%10nccn%10C)cn9C)cn8C)cn7C)cn6C)cn5C)cn4C)cc3-n3cccn3)nc(OC3CCCNC3)nc12` (some centres unmarked) [Compound 122], the EC50 under setting [2] was more than 500 nM.

Consider `Cn1cc(NC(=O)c2nc(NC(=O)CCNC(=O)c3cc(NC(=O)c4nccn4C)cn3C)cn2C)cc1C(=O)NCCCC(=O)Nc1cn(C)c(C(=O)NCCC(=O)Nc2cc(C(=O)Nc3cn(C)c(C(=O)NCCC(=O)NCCOCCOCCOCCOCCOCCOCCn4cc(CCCCN(Cc5ccc(C(=O)NO)cc5)C(=O)Nc5ccccc5)nn4)n3)n(C)c2)n1` [Compound 126], for which the EC50 under setting [2] is more than 500 nM. For `CCN(CC)CCCC[C@H](NC(=O)[C@H](CC(C)C)NC(=O)[C@H](C)NC(=O)[C@H](Cc1ccccc1)NC(=O)c1ccc(C(C)(C)C)cc1)C(=O)N[C@@H](CO)C(=O)NCCOCCOCCNC(=O)CCNC(=O)c1nc(NC(=O)c2cc(NC(=O)CCNC(=O)c3[nH]c(NC(=O)CCCNC(=O)c4cc(NC(=O)c5nc(NC(=O)CCNC(=O)c6cc(NC(=O)c7nccn7C)cn6C)cn5C)cn4C)cc3C)cn2C)cn1C` [Compound 64], under setting [1], the EC50 was less than 100 nM. Turning to `CCN(CC)CCCC[C@H](NC(=O)[C@H](CC(C)C)NC(=O)[C@H](C)NC(=O)[C@H](Cc1ccccc1)NC(=O)c1ccc(C(C)(C)C)cc1)C(=O)N[C@@H](CO)C(=O)NCCOCCOCCOCCNC(=O)CCNC(=O)c1nc(NC(=O)c2cc(NC(=O)CCNC(=O)c3nc(NC(=O)CCCNC(=O)c4cc(NC(=O)c5nc(NC(=O)CCNC(=O)c6cc(NC(=O)c7nccn7C)cn6C)cn5C)cn4C)cn3C)cn2C)cn1C` [Compound 73], under setting [1], the EC50 is less than 100 nM.

As for `Cn1cc(NC(=O)c2nc(NC(=O)CCNC(=O)c3cc(NC(=O)c4nc(NC(=O)CCNC(=O)c5cccn5C)cn4C)cn3C)cn2C)cc1C(=O)NCCC(=O)Nc1cn(C)c(C(=O)NCCOCCOCCOCCOCCOCCOCCOCCOCCOCCOCCN2CCC(C(=O)Nc3ncc(SCc4ncc(C(C)(C)C)o4)s3)CC2)n1` [Compound 2], the EC50 under setting [2] is less than 100 nM. The same measure, in the same setting: the result for `Cn1cc(NC(=O)c2nc(NC(=O)CCNC(=O)c3cc(NC(=O)c4nccn4C)cn3C)cn2C)cc1C(=O)NCCCC(=O)Nc1cn(C)c(C(=O)NCCC(=O)Nc2cc(C(=O)Nc3cn(C)c(C(=O)NCCC(=O)NCCOCCOCCOCCOCCOCCOc4ccc(NC(=O)CCCCCCC(=O)NO)cc4)n3)n(C)c2)n1` [Compound 129, N-hydroxy-N′-{4-[(17-{3-[(1-methyl-4-{1-methyl-4-[3-({1-methyl-4-[4-({1-methyl-4-[1-methyl-4-(3-{[1-methyl-4-(1-methylimidazole-2-amido)pyrrol-2-yl]formamido}propanamido)imidazole-2-amido]pyrrol-2-yl}formamido)butanamido]imidazol-2-yl}formamido)propanamido]pyrrole-2-amido}imidazol-2-yl)formamido]propanamido}-3,6,9,12,15-pentaoxaheptadecan-1-yl)oxy]phenyl}octanediamide] reads more than 500 nM.

As to `CC(C)C[C@H](NC(=O)[C@H](C)NC(=O)[C@H](Cc1ccccc1)NC(=O)c1ccc(C(C)(C)C)cc1)C(=O)N[C@@H](CCCCN(C)C1CC2CCC1C2)C(=O)N[C@@H](CO)C(=O)NCCOCCOCCOCCOCCOCCNC(=O)c1cc(NC(=O)c2cc(NC(=O)c3nc(NC(=O)c4cc(NC(=O)[C@@H](N)CCNC(=O)c5nc(NC(=O)CCNC(=O)c6cc(NC(=O)c7nccn7C)cn6C)cn5C)cn4C)cn3C)cn2C)cn1C` (some centres unmarked) [Compound 84], the EC50 under setting [1] was more than 500 nM. Still for that read-out and setting: under `CCN(CC)CCCC[C@H](NC(=O)[C@H](CC(C)C)NC(=O)[C@H](C)NC(=O)[C@H](Cc1ccccc1)NC(=O)c1ccc(C(C)(C)C)cc1)C(=O)N[C@@H](CO)C(=O)NCCOCCOCCOCCOCCOCCNC(=O)c1cc(NC(=O)c2nc(NC(=O)c3cc(NC(=O)[C@H](CCNC(=O)c4nc(NC(=O)CCNC(=O)c5cc(NC(=O)c6nccn6C)cn5C)cn4C)NC(C)=O)cn3C)cn2C)cn1C` [Compound 117] stands more than 500 nM; under `CC(C)C[C@H](NC(=O)[C@H](C)NC(=O)[C@H](Cc1ccccc1)NC(=O)c1ccc(C(C)(C)C)cc1)C(=O)N[C@@H](CCCCN(C)C1CC2CCC1C2)C(=O)N[C@@H](CO)C(=O)NCCOCCOCCNC(=O)c1cc(NC(=O)c2cc(NC(=O)c3nc(NC(=O)c4cc(NC(=O)[C@@H](N)CCNC(=O)c5nc(NC(=O)c6cc(NC(=O)c7cc(NC(=O)c8nccn8C)cn7C)cn6C)cn5C)cn4C)cn3C)cn2C)cn1C` (some centres unmarked) [Compound 118], more than 500 nM.

For the compound `CCN(CC)CCCC[C@H](NC(=O)[C@H](CC(C)C)NC(=O)[C@H](C)NC(=O)[C@H](Cc1ccccc1)NC(=O)c1ccc(C(C)(C)C)cc1)C(=O)N[C@@H](CO)C(=O)NCCOCCOCCOCCOCCOCCNC(=O)c1cc(NC(=O)c2cc(NC(=O)c3nc(NC(=O)c4cc(NC(=O)[C@@H](CCNC(=O)c5nc(NC(=O)CCNC(=O)c6cc(NC(=O)c7nccn7C)cn6C)cn5C)NC(C)=O)cn4C)cn3C)cn2C)cn1C` [Compound 114] (I: {Benzoyl(4-tBu)}-FAL[Lys(Et2)]S / II: Ac-[dDab](ImPyβIm)[X1][4Amino1MeIm2CO][X1][X1]; linker I:C-II:C via HN(CH2CH2O)5CH2CH2NH), under setting [1], the EC50 is more than 500 nM. The same measure, in the same setting: the result for `CCN(CC)CCCC[C@H](NC(=O)[C@H](CC(C)C)NC(=O)[C@H](C)NC(=O)[C@H](Cc1ccccc1)NC(=O)c1ccc(C(C)(C)C)cc1)C(=O)N[C@@H](CO)C(=O)N(C)CCOCCOCCN(C)C(=O)CCNC(=O)c1nc(NC(=O)c2cc(NC(=O)CCNC(=O)c3nc(NC(=O)CCCNC(=O)c4cc(NC(=O)c5nc(NC(=O)CCNC(=O)c6cc(NC(=O)c7nccn7C)cn6C)cn5C)cn4C)cn3C)cn2C)cn1C` [Compound 76] reads less than 100 nM. Regarding `CCN(CC)CCCC[C@H](NC(=O)COCCNC(=O)c1cnn(-c2ccc(C(C)(C)C)cc2)c1)C(=O)N[C@@H](CO)C(=O)NCCOCCOCCOCCOCCOCCNC(=O)CCNC(=O)c1nc(NC(=O)c2cc(NC(=O)CCNC(=O)c3nc(NC(=O)CCCNC(=O)c4cc(NC(=O)c5nc(NC(=O)CCNC(=O)c6cc(NC(=O)c7nccn7C)cn6C)cn5C)cn4C)cn3C)cn2C)cn1C` [Compound 150], the EC50 under setting [1] was more than 500 nM. Take `CCN(CC)CCCC[C@H](NC(=O)CCCCOCCOCCNC(=O)c1ccc(C(C)(C)C)cc1)C(=O)N[C@@H](CO)C(=O)NCCOCCOCCOCCOCCOCCNC(=O)CCNC(=O)c1nc(NC(=O)c2cc(NC(=O)CCNC(=O)c3nc(NC(=O)CCCNC(=O)c4cc(NC(=O)c5nc(NC(=O)CCNC(=O)c6cc(NC(=O)c7nccn7C)cn6C)cn5C)cn4C)cn3C)cn2C)cn1C` [Compound 141]: the EC50 under setting [1] lay within 100 to 500 nM. The same measure, in the same setting: under `CC(C)C[C@H](NC(=O)[C@H](C)NC(=O)[C@H](Cc1ccccc1)NC(=O)c1ccc(C(C)(C)C)cc1)C(=O)N[C@@H](CCCCN(C)C1CC2CCC1C2)C(=O)N[C@@H](CO)C(=O)NCCOCCOCCNC(=O)CCNC(=O)c1nc(NC(=O)c2cc(NC(=O)CCNC(=O)c3nc(NC(=O)CCCNC(=O)c4cc(NC(=O)c5nc(NC(=O)CCNC(=O)c6cc(NC(=O)c7nccn7C)cn6C)cn5C)cn4C)cn3C)cn2C)cn1C` (some centres unmarked) [Compound 77] stands less than 100 nM.

For `CC(C)C[C@H](NC(=O)[C@H](C)NC(=O)[C@H](Cc1ccccc1)NC(=O)c1ccc(C(C)(C)C)cc1)C(=O)N[C@@H](CCCCN(C)C1CC2CCC1C2)C(=O)N[C@@H](CO)C(=O)NCCOCCOCCNC(=O)c1cc(NC(=O)c2cc(NC(=O)c3nc(NC(=O)c4cc(NC(=O)[C@@H](N)CCNC(=O)c5nc(NC(=O)CCNC(=O)c6cc(NC(=O)c7nccn7C)cn6C)cn5C)cn4C)cn3C)cn2C)cn1C` (some centres unmarked) [Compound 83], the concentration for a half-maximal effect (EC50) under setting [1] was more than 500 nM. For the compound `CC(=O)N[C@@H](CCCCN(C)C1CC2CCC1C2)C(=O)N[C@@H](CO)C(=O)NCCOCCOCCOCCOCCOCCNC(=O)CCNC(=O)c1nc(NC(=O)c2cc(NC(=O)CCNC(=O)c3nc(NC(=O)CCCNC(=O)c4cc(NC(=O)c5nc(NC(=O)CCNC(=O)c6cc(NC(=O)c7nccn7C)cn6C)cn5C)cn4C)cn3C)cn2C)cn1C` (some centres unmarked) [Compound 67], the EC50 under setting [1] lay in the range of 100 to 500 nM. On to `COc1c(OCCOCCOCCOCCOCCOCCNC(=O)CCNC(=O)c2nc(NC(=O)c3cc(NC(=O)CCNC(=O)c4nc(NC(=O)CCCNC(=O)c5cc(NC(=O)c6nc(NC(=O)CCNC(=O)c7cc(NC(=O)c8nccn8C)cn7C)cn6C)cn5C)cn4C)cn3C)cn2C)cccc1C(=O)N1CCN(C(=O)COc2cccc(C)c2)CC1` [Compound 94], for which the EC50 under setting [2] is more than 500 nM.

As to `CCN(CC)CCCC[C@H](NC(=O)[C@H](CC(C)C)NC(=O)[C@H](C)NC(=O)[C@H](Cc1ccccc1)NC(=O)c1ccc(C(C)(C)C)cc1)C(=O)N[C@@H](CO)C(=O)NCCOCCOCCNC(=O)c1cc(NC(=O)c2cc(NC(=O)c3nc(NC(=O)c4cc(NC(=O)[C@@H](N)CCNC(=O)c5nc(NC(=O)CCNC(=O)c6cc(NC(=O)c7nccn7C)cn6C)cn5C)cn4C)cn3C)cn2C)cn1C` [Compound 82], the EC50 under setting [1] is more than 500 nM.

For orientation: EC50 means the midpoint of the concentration-response curve.
